The values that follow come from patent US20250154202A1, “CYCLIC EPITOPE TAGS” (BIONTECH SE, priority 2022, published 2025).

A word on the fraction remaining: it is the share of the starting amount still present when the sample was taken. Usually half-life stands for the time needed for the level to fall by half in the phase considered. A higher half-life goes with slow loss. As usually defined, the Kd is a measure of binding affinity in units of concentration. A word on the MRT inf: it is the average time that molecules of a dose stay in the body. As usually defined, the MRT last is the average time that molecules of a dose stay in the body. One may read the Tmax as the time at which the peak concentration occurs. As a reminder, the clearance is a measure of how efficiently the substance is removed, as volume per time. High values mean efficient removal, low ones inefficient removal. One may read the AUC(0-inf) as total exposure, with the tail of the curve extrapolated. A low value points to less exposure. The term AUC(0-t) denotes exposure summed from dosing to a finite time, without extrapolation to infinity. Higher therefore signals more exposure. One may read the Cmax as the highest concentration seen after dosing. Usually Vd stands for the apparent volume that relates the amount in the body to the concentration in plasma or blood. Read a low Vd as little distribution into tissue. The EC50 is the concentration that produces a half-maximal response.

Bridge positions count the residues as written; N and C are the ends. Peptide text beside a SMILES is read from it.

Series [1] in a line: Plasma stability, human plasma. Conditions: for half-life: plasma.
Procedure: (§1) Plasma stability measurements were performed by spiking 5 μl of a 1 mM compound stock solution in DMSO into 495 μl of human or mouse Li-heparin plasma (Innovative Research, Cat. No, IPLALIH5OML (human) and IMS-BC-N (Balb C mouse). The spiked plasma was distributed in 50 μl aliquots into capped PCR tubes for incubation at 37° C. At each time point (0, 2, 6, 24 hours*) 3*aliquots were withdrawn from the incubator. Enzymatic reactions were quenched directly after withdrawal by adding 100 μl of acetonitrile/formic acid=99/1 (v/v). Quenched samples were stored at ambient temperature until the end of the incubation period (24 hrs*). After centrifugation, the supernatant was transferred into fresh vials and analyzed by LC-MS/MS in ESI positive mode (Waters ACQUITY UPLC I-Class System (SM-FTN) with Xevo TQD triple quadrupole mass spectrometer with control software Waters MassLynx). […] Values below the limit of quantification (0.1 μM) and outliers of triplicate results were excluded from further calculations. An exponential regression curve was fitted onto the concentration results. Half-life times were calculated from the slope of the regression curve (t1/2=ln(2)/slope).
(§2) For some samples, as indicated below, the incubation time was 6 hours. The 24 hour data was measured in triplicates whereas the 6 hour data was measured in duplicates.
A further series concerns the target NbALFA. As to the kind of experiment: SPR measurements of NbALFA binding (Biacore T200, multi cycle kinetics, 1:1 binding model). The conditions noted are these: for Kd / ka / kd: 25° C., HBS-EP+ buffer, biotinylated NbALFA captured. The method, then:
Affinity measurements were performed using a Biacore T200 (GE Healthcare, Biacore T200 control Software 3.2). […] A freshly docked Biotin CAPture chip was rehydrated overnight in the instrument (standby mode). […] The immobilization of the Nanobody was done for 180 s at 10 μL/min on FC2 followed by quenching of unbound streptavidin by 0.1 mM biocytin for 60 s and 30 μL/min on both flow cells. […] After each cycle, the surface was regenerated for 120 s with 10 μL/min using regeneration solution. All measurements were performed at 25° C. using HBS-EP+ buffer (Cytiva Europe, Cat. no BR100669). The control responses from FC1 were subtracted by the sample measurement in FC2 (FC2−FC1) followed by subtraction of the 0 nM blank injection. Resulting binding curves of this multi cycle kinetic experiment were fitted using the Biacore T200 Evaluation Software 3.2 and a 1:1 binding model.
For orientation: In SPR one partner is held on a chip, and binding of the other changes the refractive index at the surface.

The nature of series [2]: Plasma stability, mouse plasma. The conditions noted are these: for half-life: plasma.
Procedure: as §1, §2
The nature of series [3]: Pharmacokinetic study in mouse, intravenous bolus, plasma LC-MS/MS, non-compartmental analysis. The conditions noted are these: for AUC(0-inf): AUC0-inf; for AUC(0-t): AUC0-t.
Procedure: C57BL/6NRj mice were obtained from Janvier Labs, France. In this study, approximately 8-week-old female mice were used.
Prior to administration into the lateral tail vein, the body weight of the animals was determined to calculate the individual volume of the injecting compound (5 mL/kg body weight). The injection, as well as the blood sampling, were carried out under short anesthesia (0.7 L/min O2, 1.7 L/min N2O, 2% Isoflurane). Blood was sampled from the retro-orbital plexus using microhematocrit capillary (Ø 0.8 mm) and collected into K3EDTA tubes, at the time points indicated in Table 10.
The plasma was separated by centrifugation (10,000×g; 10 min; 4° C.), aliquoted into microtubes and stored at −80° C.
20 μl of each plasma sample was transferred into PCR tubes. 80 μl IS (internal standard)-solution in acetonitrile+1% FA was added for protein precipitation.
The sample tubes were sealed with pierceable cap mats and vortexed. After homogenization for 5 min in an ultrasonic bath the samples were centrifuged at 3000 rpm at ambient temperature for 15 min. 1 μl supernatant was injected into the instrument for LC-MS/MS analysis. For LC-MS/MS quantification a ExionLC™ UHPLC coupled to a QTRAP® 6500+ mass spectrometer (Sciex) was used in ESI positive mode. Parameters for mass spectrometry were listed in the tables below, Chromatographic separation was achieved on a ACQUITY UPLC BEH C18 column (Waters, 1.7 μm, 2.1×50 mm).
Compound concentrations in plasma samples were calculated using a 10-point calibration curve in plasma over a concentration range of 1 to 1000 ng/ml. QC samples of 1, 10, 100, 1000 ng/ml were analyzed before and after each dose group. Samples exceeding the upper limit of quantification (1000 ng/ml) were re-analyzed after 10-fold dilution in blank plasma. All calculations were performed in Sciex OS Version 1.7.0.36606 and MS-EXCEL®.
Pharmacokinetic parameters were calculated for both compounds using the software Kinetica (version 4.4.1, Thermo Scientific) applying a non-compartmental model (NCA).
The subject of the next series is anti-ALFA VHH. The experiment in a line: binding affinity to the anti-ALFA VHH (log(agonist) vs. response, variable slope). Conditions: for EC50: binding to anti-ALFA VHH.
Where [4] appears, read: human plasma, 37° C., timepoint 0 h.
Where [5] appears, read: human plasma, 37° C., timepoint 1 h.
[6] abbreviates: human plasma, 37° C., timepoint 3 h.
[7] abbreviates: human plasma, 37° C., timepoint 6 h.
[8] abbreviates: Balb C, mouse, Li-heparin plasma.
[9] abbreviates: mouse plasma, 37° C., timepoint 0 h.
[10] abbreviates: mouse plasma, 37° C., timepoint 1 h.
Where [11] appears, read: mouse plasma, 37° C., timepoint 3 h.
The mark [12] stands for this setting: mouse plasma, 37° C., timepoint 6 h.
Where [13] appears, read: in vivo, iv, 3 mg/kg, single i.v.
Where [14] appears, read: in vivo, iv, normalized to a dose of 1 mg/kg, given 3 mg/kg i.v.

Turning to `CC(=O)N1CCC[C@H]1C(=O)N[C@@H](CO)C(=O)N[C@@H](CCCNC(=N)N)C(=O)N[C@@H](CC(C)C)C(=O)N[C@@H](CCC(=O)O)C(=O)N[C@H]1CCCCNC(=O)CC[C@@H](C(=O)N[C@@H](CCCNC(=N)N)C(=O)N[C@@H](CC(C)C)C(=O)N[C@H](C(=O)N[C@@H](CCC(=O)O)C(N)=O)[C@@H](C)O)NC(=O)[C@H](CCCNC(=N)N)NC(=O)[C@H](CC(C)C)NC(=O)[C@H](CCC(=O)O)NC1=O` [SD15805, Ac-Pro-Ser-Arg-Leu-Glu-(cyclo6)Lys-Glu-Leu-Arg-(cyclo10)Glu-Arg-Leu-Thr-Glu-NH2] (Ac-PSRLEKELRERLTE-NH2; lactam 6-10), the “Conc. (% of T0)” value in series [1] (setting [4]) and in series [2] (setting [9]) was 100.0 % of T0 in each case. In addition, the “Mean (compound concentration)” value in series [1] (setting [4]) came to 2.836; in series [1] (setting [5]), 2.507; in series [1] (setting [6]) it was 2.356; in series [1] (setting [7]), 2.046; in series [2] (setting [9]) it was 2.697; in series [2] (setting [10]) it was 2.213. For the same compound, the entries for the “Mean (compound concentration)” value in series [2] (setting [11]) and in series [2] (setting [12]) were 2.112 and 1.450, respectively. Besides, the “Tube 2 (compound concentration)” value is recorded as 2.777 in series [1] (setting [4]); 2.485 in series [1] (setting [5]); 2.304 in series [1] (setting [6]); 2.045 in series [1] (setting [7]); 2.811 in series [2] (setting [9]); 2.203 in series [2] (setting [10]). Moreover, the “Tube 2 (compound concentration)” value worked out at 2.099 in series [2] (setting [11]) and 1.471 in series [2] (setting [12]). Besides, the “Tube 1 (compound concentration)” value in series [1] (human plasma, 37° C., timepoint 0 h, calibration range 0.1 to 10 μM) worked out at 2.894 x; in series [1] (setting [5]), 2.529 x; in series [1] (setting [6]), 2.408 x; in series [1] (setting [7]), 2.046 x; in series [2] (mouse plasma, 37° C., timepoint 0 h, calibration range 0.1 to 10 μM), 2.583 x; in series [2] (setting [10]), 2.223 x. The results for the “Tube 1 (compound concentration)” value in series [2] (setting [11]) and in series [2] (setting [12]) were 2.125 x and 1.429 x, respectively. Also, the amount remaining at 1 h, 10 µM turned out to be 88.4% in series [1] (human, human Li-heparin plasma) and 82.1% in series [2] (setting [8]). Besides, the amount remaining at 3 h, 10 µM in series [1] (human, human Li-heparin plasma) amounted to 83.1%; in series [2] (setting [8]), 78.3%. Further, the fraction remaining at 6 h, 10 µM in series [1] (human, human Li-heparin plasma) was found to be 72.1%; in series [2] (setting [8]), 53.8%. For the same compound, the half-life in series [1] (human, Flag (half-life, assay exceeded), human plasma, 37° C.) was above 360 min; in series [1] (human, Half-life time, human plasma, 37° C., incubation 24 h (triplicates) or 6 h (duplicates)), 831 min; in series [2] (mouse, Flag (half-life, assay exceeded), mouse plasma, 37° C.), above 360 min; in series [2] (mouse, Half-life time, mouse plasma, 37° C., incubation 24 h (triplicates) or 6 h (duplicates)) it was 437 min. In addition, the Kd on NbALFA amounted to 0.103 nM. In the series on NbALFA, this compound showed a ka of 9.33e+06 M⁻¹ s⁻¹. The compound further returned a kd on NbALFA of 0.000964 s⁻¹.

Regarding `CC(=O)N1CCC[C@H]1C(=O)N[C@@H](CO)C(=O)N[C@@H](CCCNC(=N)N)C(=O)N[C@@H](CC(C)C)C(=O)N[C@@H](CCC(=O)O)C(=O)N[C@H]1CCC(=O)NCCCC[C@@H](C(=O)N[C@@H](CCCNC(=N)N)C(=O)N[C@@H](CC(C)C)C(=O)N[C@H](C(=O)N[C@@H](CCC(=O)O)C(N)=O)[C@@H](C)O)NC(=O)[C@H](CCCNC(=N)N)NC(=O)[C@H](CC(C)C)NC(=O)[C@H](CCC(=O)O)NC1=O` [SD15341, Ac-Pro-Ser-Arg-Leu-Glu-(cyclo6)Glu-Glu-Leu-Arg-(cyclo10)Lys-Arg-Leu-Thr-Glu-NH2] (Ac-PSRLEEELRKRLTE-NH2; lactam 6-10), at NbALFA, the affinity, expressed as Kd, was 0.0194 nM; the ka came out at 1.86e+07 M⁻¹ s⁻¹; the kd was determined as 0.000361 s⁻¹. For the same compound, in the series with NbALFA (in words), the “binding with respect to NbALFA” value is “very good binding”. This compound gave a half-life in series [3] (female, C57BL/6NRj, plasma, iv, 3 mg/kg) of 6.69 min. Further, in series [3] (i.v., in words), the “area under the curve (AUC) compared to the linear alpha compound” value is “much higher” and the “clearance compared to the linear alpha compound” value was “drastically reduced”. Besides, in series [3] (in vivo, iv, 3 mg/kg), the MRT inf was 4.5 min, the MRT last is 4.47 min, the Tmax is 1 min and the clearance was 52.8 mL/min/kg. In series [3] (setting [13]), this compound showed an AUC(0-inf) of 948 ng·h/mL, an AUC(0-t) of 947 ng·h/mL and a Cmax of 12700 ng/mL. Also, in series [3] (in vivo, iv, 3 mg/kg, C0, single i.v.), the C0 was 15400 ng/mL. The compound also displayed a Vd in series [3] (in vivo, iv, 3 mg/kg, Vss, single i.v., 3 mg/kg) of 0.237 L/kg. The compound also showed a distribution volume (Vd) in series [3] (in vivo, iv, 3 mg/kg, Vz, single i.v.) of 0.509 L/kg. Further, in series [3] (setting [14]), the AUC(0-inf) stood at 316 ng·h/mL, the AUC(0-t) came out at 316 ng·h/mL and the peak level (Cmax) was 4240 ng/mL. In addition, the C0 in series [3] (in vivo, iv, C0, normalized to a dose of 1 mg/kg, given 3 mg/kg i.v.) worked out at 5130 ng/mL. For the same compound, in series [3] (single i.v., 3 mg/kg), the AUCextra stood at 0.05%, the Vc was determined as 0.195 L/kg, the t1/2effective stood at 3.10 min and the t1/2initial turned out to be 2.41 min. In addition, in series [3] (single i.v., 3 mg/kg), the λinitial was 0.29 min⁻¹ and the λterminal was 0.10 min⁻¹.

In the case of “Ac-SRLEEELRRRLTE-NH2 [SD15197, Ac-Ser-Arg-Leu-Glu-Glu-Glu-Leu-Arg-Arg-Arg-Leu-Thr-Glu-NH2, reference compound]”, the LogEC50 in the series with anti-ALFA VHH (best-fit values, log(agonist) vs. response, variable slope) is on record as 0.4145. On anti-ALFA VHH, this compound showed an EC50 of 2.6 nM. Further, the EC50 at anti-ALFA VHH (listed as parent linear ALFA peptide) was determined as 2.6 nM. Further, at NbALFA, the affinity, expressed as Kd, was 0.0117 nM; the ka is 5.05e+07 M⁻¹ s⁻¹; the kd worked out at 0.000593 s⁻¹.
